The conditions of data set [1]: in vivo.
The next data set deals with rumen microorganisms. The experiment in a line: In vitro evaluation of rumen protection: degradation by rumen microorganisms in rumen fluid incubation. The settings on record: male, Holstein, cattle, 12 h. The format is in vitro ADME, Holstein steers (rumen fluid donors). Here is the method:
Schematics of the HMTBa derivatives are presented below in Table. 1. Following the methodology of Patterson and Kung (J. Dairy Sci., 1988, vol. 71, pp. 3292-3301), fermentation substrate comprising casein, cellobiose, starch, pectin, and cellulose was added at a rate of 0.45 g to 250 mL fermentation flasks. HMTBa derivatives were randomly assigned to flasks and thoroughly mixed to ensure that all compounds were incorporated into the substrate. Methionine hydroxy analog (MHA), polymer encapsulated methionine (eMet) were also included as controls, as well as a blank. A total of 28 fermentation flasks were used, resulting in 4 replicates per treatment for each of the two experiments. Three cannulated Holstein steers were utilized as rumen fluid donors. Steers were housed on pasture, allowed to graze freely, and provided free choice supplement. Approximately 1000 mL of rumen fluid and a handful of rumen contents were obtained from each steer. Rumen fluid and contents were combined in pre-heated thermoses, transported to the lab, blended using a hand blender, and strained through 8 layers of cheese cloth. Combined rumen fluid was maintained under CO2 and thoroughly mixed. […] Due to variability associated with in vitro methodology, replicates were evaluated for similarity. […] Recovery of HMTBa or methionine was determined and expressed relative to initial amount of HMTBA or methionine (active) added. […]

This is an account of results in patent publication US11185524B2 (Novus International, Inc., priority 2019, dated 2021).

Marks after values point to notes of the source that are not given here.

On to `CSCCC(O)C(=O)O` (centres unmarked) [MHA, Methionine hydroxy analog], for which, in data set [1], the HMTBa in plasma was 0.324^a μg/mL; the L-methionine in plasma is 5.312^a μg/mL; the “Methionine equivalents in plasma (sum of L-methionine, D-methionine, and HMTBa)” value is given as 5.666^a μg/mL.
Regarding `CSCCC1OC(=O)C(CCSC)OC1=O` (centres unmarked) [Cyclic Dimer, 3,6-bis(2-methylthio)ethyl-1,4-dioxane-2,5-dione], in the data set on rumen microorganisms, the “Free Active recovered” value was 439.6^c ppm and the “Ruminal undegradability (estimated ruminal stability)” value was 56.64^c.
